Drawing on US7166597B2, “Fused pyrazole derivatives being protein kinase inhibitors” (Glaxo Group Limited, priority 2000, dated 2007), this text covers IC50 for 23 molecules.

In experiment [1] the target is T1, JNK3 kinase (Jnk-3alpha-2) (Homo sapiens, UniProt P53779).
T1 construct: Jnk-3alpha-2 (as a truncated construct, residues 39 to 224) was expressed in E. coli as a GST fusion protein; Following purification the GST portion was removed by thrombin cleavage; fused on or other part: An N-terminal GST tag was used for expression and removed by thrombin cleavage before the assay
Put plainly: JNK3 Kinase Assay. Type of experiment: biochemical. The protocol: JNK3 Kinase Assay Jnk-3alpha-2 (as a truncated construct, residues 39 to 224) was expressed in E. coli as a GST fusion protein. Following purification the GST portion was removed by thrombin cleavage. The enzyme was stored at −80° C. Substrate c-Jun was expressed as a GST fusion protein including a signal peptide (biotinylation site) in E. coli. Following purification the substrate was biotinylated on a specific lysine in the signal peptide using biotin ligase. Prior to assay Jnk-3 was pre-activated by incubation with MgATP. The enzyme (10 nM) was screened in 40 mM HEPES (pH 7.4), 150 mM NaCl, 20 mM glycerophosphate, 1 mM DTT, 0.2 mM vanadate, 200 nM biotin-c-Jun, 5 mM MgCl2 and 10 uM ATP. Inhibitors were added over a conc range of from 0 to 10 uM in DMSO (fc 3%). The reaction was stopped by the addition of 25 mM EDTA. Phospho-c-Jun was detected using homogeneous time resolved fluorescence (HTRF) with a Eu-labelled antiphosphoserine (Serine 73) and streptavidin APC.

In experiment [2] the target is T2, p38 kinase (Homo sapiens, UniProt Q16539).
T2 construct: GST (N); made in house; host or cells: E. coli
As to the kind of experiment: p38 Kinase Assay. In kind it is biochemical. The protocol: The peptide substrate used in the p38 assay was biotin-IPTSPITTTYFFFRRR-amide. The p38 and MEK6 proteins were purified to homogeneity from E. coli expression systems. The fusion proteins were tagged at the N-terminus with Glutathione-S-Transferase (GST). The maximum activation was achieved by incubating 20 uL of a reaction mixture of 30 nM MEK6 protein and 120 nM p38 protein in the presence of 1.5 uM peptide and 10 mM Mg (CH3CO2)2 in 100 mM HEPES7 pH 7.5, added to 15 uL of a mixture of 1.5 uM ATP with 0.08 uCi [g-^33P]ATP, with or without 15 uL of inhibitor in 6% DMSO. The controls were reactions in the presence (negative controls) or absence (positive controls) of 50 mM EDTA. Reactions were allowed to proceed for 60 min at room temperature and quenched with addition of 50 uL of 250 mM EDTA and mixed with 150 uL of Streptavidin SPA beads (Amersham) to 0.5 mg/reaction. The Dynatech Microfluor white U-bottom plates were sealed and the beads were allowed to settle overnight. The plates were counted in a Packard TopCount for 60 seconds. IC50 values were obtained by fitting raw data to % I=100*(1−(I−C2)/(C1−C2)), where I was […], C1 was positive control, and C2 was negative control.

[3] abbreviates: Table 9, p38 assays using Assay II, read-out: p38 IC50.
Setting [4] is: Table 8, read-out: JNK3 kinase (inhibition of JNK3 kinase, IC50).
Setting [5] is: Table 8, compounds wherein Z is N, read-out: p38 kinase (inhibition of p38 kinase, IC50).

Read-outs that look alike come from different tables or passages of the source.

T2 sequence (Q16539 whole entry): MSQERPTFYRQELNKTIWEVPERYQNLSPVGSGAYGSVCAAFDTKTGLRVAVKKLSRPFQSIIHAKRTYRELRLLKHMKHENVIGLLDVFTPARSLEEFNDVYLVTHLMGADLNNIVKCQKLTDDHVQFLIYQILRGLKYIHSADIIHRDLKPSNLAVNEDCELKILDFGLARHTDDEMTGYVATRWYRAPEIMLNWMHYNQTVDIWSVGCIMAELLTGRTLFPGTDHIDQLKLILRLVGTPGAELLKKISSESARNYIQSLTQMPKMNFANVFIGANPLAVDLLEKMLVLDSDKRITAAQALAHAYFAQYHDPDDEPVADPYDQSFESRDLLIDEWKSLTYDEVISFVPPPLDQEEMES
T1 sequence (P53779 39-402 limits assumed): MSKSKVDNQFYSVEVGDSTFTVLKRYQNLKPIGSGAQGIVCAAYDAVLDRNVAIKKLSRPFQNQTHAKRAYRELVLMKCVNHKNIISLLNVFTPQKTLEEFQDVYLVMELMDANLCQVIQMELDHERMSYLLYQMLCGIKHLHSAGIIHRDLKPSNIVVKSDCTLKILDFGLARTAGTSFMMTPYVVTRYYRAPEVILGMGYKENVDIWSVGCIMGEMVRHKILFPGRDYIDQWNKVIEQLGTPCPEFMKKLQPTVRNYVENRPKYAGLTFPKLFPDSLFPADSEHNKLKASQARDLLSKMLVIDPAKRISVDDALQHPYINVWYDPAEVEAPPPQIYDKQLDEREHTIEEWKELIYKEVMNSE

Consider `Fc1ccc(-c2nn3cc(C(F)(F)F)ccc3c2-c2ccnc(NCCN3CCCCC3)n2)cc1Cl` [Example 109, N-{4-[2-(3-chloro-4-fluorophenyl)-6-(trifluoromethyl)pyrazolo[1,5-a]pyridin-3-yl]pyrimidin-2-yl}-N-(2-piperidin-1-ylethyl)amine], for which the IC50 in experiment [1] (Table 9, read-out: JNK3 IC50) was in the range of 1 to 10 µM; in experiment [2] (setting [3]), 0.1 to 1 µM.
The matching figures for `Fc1ccc(-c2nn3cc(C(F)(F)F)ccc3c2-c2ccnc(NCCN3CCCC3)n2)cc1Cl` [Example 104, N-{4-[2-(3-chloro-4-fluorophenyl)-6-(trifluoromethyl)pyrazolo-[1,5-a]pyridin-3-yl]pyrimidin-2-yl}-N-(2-pyrrolidin-1-ylethyl)amine]: 1 to 10 µM and 0.1 to 1 µM.
For the molecule `CCCN(CCC)CCNc1nccc(-c2c(-c3ccc(F)c(Cl)c3)nn3cc(C(F)(F)F)ccc23)n1` [Example 98, N-{4-[2-(3-chloro-4-fluorophenyl)-6-(trifluoromethyl)pyrazolo-[1,5-a]pyridin-3-yl]pyrimidin-2-yl}-N-[2-(dipropylamino)ethyl]amine], the IC50 lay within 1 to 10 µM in experiment [1] (Table 9, read-out: JNK3 IC50) and 0.1 to 1 µM in experiment [2] (setting [3]).
Take `CCN(CC)CCCCNc1nccc(-c2c(-c3ccc(F)c(Cl)c3)nn3cc(C(F)(F)F)ccc23)n1` [Example 93, N-{4-[2-(3-chloro-4-fluorophenyl)-6-(trifluoromethyl)pyrazolo-[1,5-a]pyridin-3-yl]pyrimidin-2-yl}-N-[4-(diethylamino)butyl]amine]: the IC50 in experiment [1] (Table 9, read-out: JNK3 IC50) was 0.1 to 1 µM; in experiment [2] (setting [3]) it was 0.01 to 0.1 µM.
Turning to `Fc1ccc(-c2nn3ccccc3c2-c2ccnc(NC3CC3)n2)cc1` [Example 61, N-Cyclopropyl-4-[2-(4-fluorophenyl)pyrazolo[1,5-a]pyridin-3-yl]-2-pyrimidinamine], the IC50 in experiment [1] (setting [4]) and in experiment [2] (setting [5]) was under 0.5 µM each time.
As to `FC(F)(F)c1ccc2c(-c3ccnc(NCCN4CCCC4)n3)c(-c3cccc(Cl)c3)nn2c1` [Example 105, N-{4-[2-(3-chlorophenyl)-6-(trifluoromethyl)pyrazolo[1,5-a]pyridin-3-yl]pyrimidin-2-yl}-N-(2-pyrrolidin-1-ylethyl)amine], the IC50 in experiment [1] (Table 9, read-out: JNK3 IC50) was in the range of 1 to 10 µM; in experiment [2] (setting [3]), 0.1 to 1 µM.
With `Fc1ccc(-c2nn3cc(C(F)(F)F)ccc3c2-c2ccnc(Oc3ccccc3)n2)cc1` [Example 84, 2-(4-Fluorophenyl)-3-(2-phenoxypyrimidin-4-yl)-6-(trifluoromethyl)pyrazolo[1,5-a]pyridine], the IC50 in experiment [1] (setting [4]) and in experiment [2] (setting [5]) was under 0.5 µM in each case.
For the molecule `FC(F)(F)c1ccc(-c2nn3cc(C(F)(F)F)ccc3c2-c2ccnc(NCCN3CCCCC3)n2)cc1` [Example 108, N-(2-piperidin-1-ylethyl)-N-(4-{6-(trifluoromethyl)-2-[4-(trifluoromethyl)phenyl]pyrazolo[1,5-a]pyridin-3-yl}pyrimidin-2-yl)amine], the IC50 in experiment [2] (setting [3]) lay in the range of 1 to 10 µM.
With `CCCN1CCN(CCNc2nccc(-c3c(-c4ccc(C(F)(F)F)cc4)nn4cc(C(F)(F)F)ccc34)n2)CC1` [Example 127, N-[2-(4-propylpiperazin-1-yl)ethyl]-N-(4-{6-(trifluoromethyl)-2-[4-(trifluoromethyl)phenyl]pyrazolo[1,5-a]pyridin-3-yl}pyrimidin-2-yl)amine], the IC50 lay within 1 to 10 µM in experiment [1] (Table 9, read-out: JNK3 IC50) and 1 to 10 µM in experiment [2] (setting [3]).
In the case of `Cc1ccc(C)c(Oc2nccc(-c3c(-c4ccc(F)cc4)nn4cc(C(F)(F)F)ccc34)n2)c1` [Example 86, 3-[2-(2,5-Dimethylphenoxy)pyrimidin-4-yl]-2-(4-fluorophenyl)-6-(trifluoromethyl)pyrazolo[1,5-a]pyridine], the IC50 in experiment [1] (setting [4]) and in experiment [2] (setting [5]) was under 0.5 µM each time.
Regarding `CN(C)CCCNc1nccc(-c2c(-c3ccc(F)c(Cl)c3)nn3cc(C(F)(F)F)ccc23)n1` [Example 89, N-[4-{2-[3-chloro-4-fluorophenyl]-6-(trifluoromethyl)pyrazolo-[1,5-a]pyridin-3-yl}pyrimidin-2-yl]-N-[3-(dimethylamino)propyl]amine], the IC50 in experiment [1] (Table 9, read-out: JNK3 IC50) fell in the range of 1 to 10 µM; in experiment [2] (setting [3]) it was 0.01 to 0.1 µM.
For `FC(F)(F)c1ccc2c(-c3ccnc(NCCCN4CCOCC4)n3)c(-c3cccc(Cl)c3)nn2c1` [Example 123, N-{4-[2-(3-chlorophenyl)-6-(trifluoromethyl)pyrazolo[1,5-a]pyridin-3-yl]pyrimidin-2-yl}-N-(3-morpholin-4-ylpropyl)amine], the 50% inhibitory concentration (IC50) in experiment [1] (Table 9, read-out: JNK3 IC50) was in the range of 0.1 to 1 µM; in experiment [2] (setting [3]), 0.01 to 0.1 µM.
Take `CN1CCN(CCCNc2nccc(-c3c(-c4ccc(F)cc4)nn4cc(C(N)=O)ccc34)n2)CC1` [Example 79, 2-(4-Fluorophenyl)-3-(4-(2-(3-(4-methylpiperazino)propyl)amino)pyrimidinyl)-6-pyrazolo-[1,5-a]pyridinylcarboxamide]: the concentration for half-maximal inhibition (IC50) in experiment [2] (setting [5]) was under 0.5 µM.
Same read-out and setting: as for `OCCCNc1nccc(-c2c(-c3ccc(F)cc3)nn3cc(C(F)(F)F)ccc23)n1` [Example 72, 3-(4-[2-(4-Fluorophenyl)-6-trifluoromethylpyrazolo[1,5-a]pyridin-3-yl]-2-pyrimidinylamino)-1-propanol], the figure is under 0.5 µM.
Turning to `OCc1ccn2nc(-c3ccc(F)cc3)c(-c3ccncc3)c2c1` [Example 6, 2-(4-Fluorophenyl)-5-hydroxymethyl-3-(4-pyridinyl)pyrazolo[1,5-a]pyridine], the half-maximal inhibitory concentration (IC50) in experiment [2] (Table 7, compounds wherein Z is CH, read-out: P38 kinase (inhibition of p38 kinase, IC50)) was under 0.5 µM.
As for `CCN(CC)CCNc1nccc(-c2c(-c3cccc(Cl)c3)nn3cc(C(F)(F)F)ccc23)n1` [Example 96, N-{4-[2-(3-chlorophenyl)-6-(trifluoromethyl)pyrazolo[1,5-a]pyridin-3-yl]pyrimidin-2-yl}-N-[2-(diethylamino)ethyl]amine], in experiment [2] (setting [3]), the IC50 was 0.1 to 1 µM.
The same measure, in the same setting: as for `FC(F)(F)c1ccc(-c2nn3cc(C(F)(F)F)ccc3c2-c2ccnc(NCCN3CCOCC3)n2)cc1` [Example 119, N-(2-morpholin-4-ylethyl)-N-(4-{6-(trifluoromethyl)-2-[4-(trifluoromethyl)phenyl]pyrazolo[1,5-a]pyridin-3-yl}pyrimidin-2-yl)amine], the figure is 1 to 10 µM; as for `CCN(CC)CCNc1nccc(-c2c(-c3ccc(C(F)(F)F)cc3)nn3cc(C(F)(F)F)ccc23)n1` [Example 95, N-[2-(diethylamino)ethyl]-N-(4-{6-(trifluoromethyl)-2-[4-(trifluoromethyl)phenyl]pyrazolo[1,5-a]pyridin-3-yl}pyrimidin-2-yl)amine], 1 to 10 µM; as for `FC(F)(F)c1ccc(-c2nn3cc(C(F)(F)F)ccc3c2-c2ccnc(NCCN3CCCC3)n2)cc1` [Example 103, N-(2-pyrrolidin-1-ylethyl)-N-(4-{6-(trifluoromethyl)-2-[4-(trifluoromethyl)phenyl]pyrazolo[1,5-a]pyridin-3-yl}pyrimidin-2-yl)amine], 1 to 10 µM.
Same read-out and setting: the result for `CCCN(CCC)CCNc1nccc(-c2c(-c3ccc(C(F)(F)F)cc3)nn3cc(C(F)(F)F)ccc23)n1` [Example 97, N-[2-(dipropylamino)ethyl]-N-(4-{6-(trifluoromethyl)-2-[4-(trifluoromethyl)phenyl]pyrazolo[1,5-a]pyridin-3-yl}pyrimidin-2-yl)amine] reads 1 to 10 µM.
Regarding `Nc1nccc(-c2c(-c3ccc(F)cc3)nn3cc(C(F)(F)F)ccc23)n1` [Example 65, 4-[2-(4-Fluorophenyl)-6-trifluoromethylpyrazolo[1,5-a]pyridin-3-yl]-2-pyrimidinamine], in experiment [2] (setting [5]), the IC50 was under 0.5 µM.
On the same count and under the same terms, as for `NC(=O)c1ccc2c(-c3ccnc(NCCCO)n3)c(-c3ccc(F)cc3)nn2c1` [Example 76, 2-(4-Fluorophenyl)-3-(4-(2-(3-hydroxypropyl)amino)pyrimidinyl)-6-pyrazolo-[1,5-a]pyridinylcarboxamide], the figure is under 0.5 µM.
Consider `FC(F)(F)c1ccc(-c2nn3cc(C(F)(F)F)ccc3c2-c2ccnc(NCCCN3CCOCC3)n2)cc1` [Example 121, N-(3-morpholin-4-ylpropyl)-N-(4-{6-(trifluoromethyl)-2-[4-(trifluoromethyl)phenyl]pyrazolo[1,5-a]pyridin-3-yl}pyrimidin-2-yl)amine], for which, in experiment [2] (setting [3]), the 50% inhibitory concentration (IC50) lay within 1 to 10 µM.
